Measured values taken from US9029405B2, “5-(biphenyl-4-yl)-3-phenyl-1,2,4-oxadiazolyl derivatives as ligands on the sphingosine 1-phosphate(SIP)receptors” (Merck Serono S.A., priority 2010, dated 2015).
Structures can show the parent of a compound that is named as a salt. Where two headings read alike, the source gives them in different places.

What was measured:
[1] = biological target: S1P3 (Homo sapiens, UniProt Q99500); experiment: Receptor binding assay, [33P]sphingosine 1-phosphate competition, membranes of CHO cells expressing S1P3
S1P3, sequence (Q99500 whole entry, species assumed): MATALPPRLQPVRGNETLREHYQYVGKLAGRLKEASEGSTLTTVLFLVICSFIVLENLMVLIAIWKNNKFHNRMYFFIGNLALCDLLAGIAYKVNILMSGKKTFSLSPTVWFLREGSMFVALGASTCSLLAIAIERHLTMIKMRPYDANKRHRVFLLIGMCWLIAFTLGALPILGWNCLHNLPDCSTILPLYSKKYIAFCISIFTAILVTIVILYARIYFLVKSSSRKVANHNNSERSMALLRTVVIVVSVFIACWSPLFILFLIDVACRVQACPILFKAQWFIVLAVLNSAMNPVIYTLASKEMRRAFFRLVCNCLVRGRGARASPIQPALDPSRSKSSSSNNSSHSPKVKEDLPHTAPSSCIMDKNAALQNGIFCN
Outline: (§1)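 SPA competition on CHO membranes with [33P]S1P at 30 pM (S1P1) or 15 pM (S1P3), in 50 mM HEPES pH 7.5, 5 mM MgCl2, 100 mM NaCl, 0.4% fatty acid-free BSA, 60 min at RT. Non-specific binding defined by 1000-fold unlabeled S1P; Ki values reported.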

[2] = biological target: T1, S1P1 (Homo sapiens, UniProt P21453); experiment: Receptor binding assay, [33P]sphingosine 1-phosphate competition, membranes of CHO cells expressing S1P1
Outline: as §1
Target sequence in this assay (P21453 whole entry, species assumed): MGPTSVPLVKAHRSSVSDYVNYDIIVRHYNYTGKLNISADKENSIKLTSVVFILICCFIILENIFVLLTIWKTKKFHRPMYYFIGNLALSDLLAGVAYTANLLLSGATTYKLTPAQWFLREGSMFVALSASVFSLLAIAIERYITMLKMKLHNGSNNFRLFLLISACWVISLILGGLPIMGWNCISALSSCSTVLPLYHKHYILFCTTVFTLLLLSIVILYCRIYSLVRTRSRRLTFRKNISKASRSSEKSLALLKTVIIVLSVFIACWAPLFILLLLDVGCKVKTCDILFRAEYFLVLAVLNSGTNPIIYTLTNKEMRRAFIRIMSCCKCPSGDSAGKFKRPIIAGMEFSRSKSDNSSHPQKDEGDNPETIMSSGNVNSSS

[3] = biological target: T1, S1P1; experiment: S1P1 internalization assay in S1P1-U2OS cells (cell imaging); format: cell-based; set-up: host or cells: U2OS (human bone osteosarcoma epithelial cells); conditions: U2OS cells expressing S1P1-EGFP, 384-well format
Outline: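 U2OS cells stably expressing human S1P1-EGFP, serum-starved 2 h in medium with 0.1% fatty-acid-free BSA, then compound 1 h at 37° C. After fixation and Hoechst nuclear stain, receptor internalization imaged as EGFP spot count per nucleus.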
Target sequence in this assay (P21453 whole entry): as the sequence (P21453 whole entry, species assumed) above

[4] = 384 well plate, read-out: S1P3 Binding Ki [M] (384 well plate)
[5] = 384 well plate, read-out: S1P1 Binding Ki [M] (384 well plate)

`Cc1ccccc1-c1ccc(-c2nc(-c3ccc(CN[C@H](C(=O)O)C(C)C)c(F)c3)no2)cc1C(F)(F)F` [Example 47, N-(2-fluoro-4-{5-[2′-methyl-2-(trifluoromethyl)biphenyl-4-yl]-1,2,4-oxadiazol-3-yl}benzyl)valine, hydrochloride salt] was tested, and the Ki [1, 4] was 1.95e-05 M, the Ki [2, 5] was 4.26e-09 M and the EC50 [3] was 39.1 nM.

`Cc1ccccc1-c1ccc(-c2nc(-c3ccc(CNC(C(=O)O)C(C)O)cc3)no2)cc1C(F)(F)F` (centres unmarked) [Example 64] gave a Ki [1, 4] of 1.99e-06 M, a Ki [2, 5] of 6.78e-09 M and an EC50 [3] of 45.9 nM.

In the case of `Cc1ccccc1-c1ccc(-c2nc(-c3ccc(CNC(C)(C)C(=O)O)c(F)c3)no2)cc1C(F)(F)F` [Example 49, N-(2-fluoro-4-{5-[2′-methyl-2-(trifluoromethyl)biphenyl-4-yl]-1,2,4-oxadiazol-3-yl}benzyl)-2-methylalanine, hydrochloride salt], the Ki [1, 4] is reported as 9.71e-07 M, the Ki [2, 5] is reported as 1.06e-09 M and the EC50 [3] is reported as 13.8 nM.

For `CC[C@@H](N[C@H](C)c1ccc(-c2noc(-c3ccc(-c4ccccc4C)c(C(F)(F)F)c3)n2)cc1)C(=O)O` [Example 11, (2R)-2-{[(1R)-1-(4-{5-[2′-methyl-2-(trifluoromethyl)biphenyl-4-yl]-1,2,4-oxadiazol-3-yl}phenyl)ethyl]amino}butanoic acid, hydrochloride salt], the Ki [1, 4] was 2.32e-06 M, the Ki [2, 5] was 3.96e-09 M and the EC50 [3] was 26 nM.

In the case of `Cc1ccccc1-c1ccc(-c2nc(-c3ccc(CCN[C@H](C)C(=O)O)cc3)no2)cc1C(F)(F)F` [Example 93], the Ki [1, 4] is reported as 4.67e-06 M, the Ki [2, 5] is reported as 1.22e-08 M and the EC50 [3] is reported as 28.6 nM.

In the case of `COCc1cc(-c2nc(-c3ccc(C(C)N(C)[C@@H](C)C(=O)O)cc3)no2)ccc1-c1ccccc1C` (some centres unmarked) [Example 37, N-[1-(4-{5-[2-(methoxymethyl)-2′-methylbiphenyl-4-yl]-1,2,4-oxadiazol-3-yl}phenyl)ethyl]-N-methylalanine], the Ki [1, 4] is reported as 3.4e-06 M, the Ki [2, 5] is reported as 1.44e-09 M and the EC50 [3] is reported as 15.1 nM.

With `Cc1cc(-c2nc(-c3ccc([C@@H](C)N[C@H](C)C(=O)O)cc3)no2)ccc1-c1ccccc1C(F)(F)F` [Example 6, N-[(1R)-1-(4-{5-[2-methyl-2′-(trifluoromethyl)biphenyl-4-yl]-1,2,4-oxadiazol-3-yl}phenyl)ethyl]-D-alanine, hydrochloride salt] the Ki ([1]; 96 well plate, read-out: S1P3 Binding Ki [M] (96 well plate)) was > 2e-05 M, the Ki [1, 4] was > 2e-05 M and the Ki ([2]; 96 well plate, read-out: S1P1 Binding Ki [M] (96 well plate)) was 9.92e-10 M. It also gave a Ki [2, 5] of 2.18e-09 M and an EC50 [3] of 7.57 nM.

Work on `CCN(Cc1ccc(-c2noc(-c3ccc(-c4ccccc4C)c(C(F)(F)F)c3)n2)cc1)[C@H](C)C(=O)O` [Example 90, (R)-2-(Ethyl-{4-[5-(2′-methyl-2-trifluoromethyl-biphenyl-4-yl) [1,2,4]oxadiazol-3-yl]-benzyl}-amino)-propionic acid] yielded a Ki [1, 4] of 9.48e-07 M, a Ki [2, 5] of 2.48e-09 M and an EC50 [3] of 7.92 nM.

`Cc1ccccc1-c1ccc(-c2nc(-c3ccc([C@@H](C)N[C@@H](C)C(=O)O)cc3)no2)cc1C(F)(F)F` [Example 19, N-[(1R)-1-(4-{5-[2′-methyl-2-(trifluoromethyl)biphenyl-4-yl]-1,2,4-oxadiazol-3-yl}phenyl)ethyl]-L-alanine, hydrochloride salt] gave a Ki [1, 4] of 2.56e-06 M, a Ki [2, 5] of 3.98e-09 M and an EC50 [3] of 45.6 nM.

For `Cc1cc(-c2nc(-c3ccc(CNC(C)(C)C(=O)O)c(F)c3)no2)ccc1-c1ccccc1C(F)(F)F` [Example 48, N-(2-fluoro-4-{5-[2-methyl-2′-(trifluoromethyl)biphenyl-4-yl]-1,2,4-oxadiazol-3-yl}benzyl)-2-methylalanine, hydrochloride salt], the Ki [1, 4] was > 2e-05 M, the Ki [2, 5] was 4.68e-09 M and the EC50 [3] was 23.8 nM.

Compound `COCc1cc(-c2nc(-c3ccc(CNC(C)(C)C(=O)O)c(F)c3)no2)ccc1-c1ccccc1C` [Example 16, N-(2-fluoro-4-{5-[2-(methoxymethyl)-2′-methylbiphenyl-4-yl]-1,2,4-oxadiazol-3-yl}benzyl)-2-methylalanine, hydrochloride salt] has a Ki [1, 4] of 7.2e-07 M, a Ki [2, 5] of 1.23e-09 M and an EC50 [3] of 8.43 nM.

Compound `Cc1ccccc1-c1ccc(-c2nc(-c3cccc(CCN[C@H](C(=O)O)C(C)C)c3)no2)cc1C(F)(F)F` [Example 96] has a Ki [1, 4] of 1.78e-07 M, a Ki [2, 5] of 5.33e-10 M and an EC50 [3] of 3.73 nM.

In the case of `CC[C@@H](C(=O)O)N(C)Cc1cccc(-c2noc(-c3ccc(-c4ccccc4C)c(C(F)(F)F)c3)n2)c1` [Example 86], the Ki [1, 4] is reported as 5.55e-07 M, the Ki [2, 5] is reported as 5.88e-09 M and the EC50 [3] is reported as 39.7 nM.

Compound `CCC(NCc1ccc(-c2noc(-c3ccc(-c4ccccc4C)c(C(F)(F)F)c3)n2)cc1)C(=O)O` (centres unmarked) [Example 58] has a Ki [1, 4] of 5.22e-06 M, a Ki [2, 5] of 3.39e-09 M and an EC50 [3] of 4.87 nM.

With `CCC(C(=O)O)N(C)Cc1ccc(-c2noc(-c3ccc(-c4ccccc4C)c(C(F)(F)F)c3)n2)cc1F` (centres unmarked) [Example 1, 2-[(2-fluoro-4-{5-[2′-methyl-2-(trifluoromethyl)biphenyl-4-yl]-1,2,4-oxadiazol-3-yl}benzyl)(methyl)amino]butanoic acid, hydrochloride salt] the Ki [1, 4] was 1.77e-06 M, the Ki [2, 5] was 2.81e-09 M and the EC50 [3] was 43.3 nM.

Compound `Cc1ccccc1-c1ccc(-c2nc(-c3ccc(CN(C)[C@@H](C)C(=O)O)cc3)no2)cc1C(F)(F)F` [Example 70] has a Ki [1, 4] of 7.53e-07 M, a Ki [2, 5] of 2.98e-09 M and an EC50 [3] of 18.8 nM.

In the case of `CC[C@H](NCc1ccc(-c2noc(-c3ccc(-c4ccccc4C)c(C(F)(F)F)c3)n2)cc1)C(=O)O` [Example 54, (2S)-2-(4-(5-(2′-methyl-2-(trifluoromethyl)biphenyl-4-yl)-1,2,4-oxadiazol-3-yl)benzylamino)butanoic acid], the Ki [1, 4] is reported as 6.69e-06 M, the Ki [2, 5] is reported as 7.95e-09 M and the EC50 [3] is reported as 39.7 nM.

`Cc1ccccc1-c1ccc(-c2nc(-c3ccc([C@H](C)N[C@@H](C)C(=O)O)cc3)no2)cc1C(F)(F)F` (racemic) [Example 26, N-[(1S)-1-(4-{5-[2′-methyl-2-(trifluoromethyl)biphenyl-4-yl]-1,2,4-oxadiazol-3-yl}phenyl)ethyl]-L-alanine, hydrochloride salt and N-[(1R)-1-(4-{5-[2′-methyl-2-(trifluoromethyl)biphenyl-4-yl]-1,2,4-oxadiazol-3-yl}phenyl)ethyl]-D-alanine, hydrochloride salt] was tested, and the Ki [1, 4] was 1.65e-06 M, the Ki [2, 5] was 2.24e-09 M and the EC50 [3] was 21.6 nM.

`Cc1ccccc1-c1ccc(-c2nc(-c3ccc(CN[C@H](C(=O)O)C(C)C)cc3)no2)cc1C(F)(F)F` [Example 55] gave a Ki [1, 4] of 8.02e-07 M, a Ki [2, 5] of 2.2e-09 M and an EC50 [3] of 16.8 nM.

In the case of `Cc1ccccc1-c1ccc(-c2nc(-c3ccc(CNC(C)(C)C(=O)O)cc3)no2)cc1C(F)(F)F` [Example 57], the Ki [1, 4] is reported as > 2e-05 M, the Ki [2, 5] is reported as 5.69e-09 M and the EC50 [3] is reported as 19.9 nM.

`Cc1ccccc1-c1ccc(-c2nc(-c3ccc(CN[C@@H](C)C(=O)O)cc3)no2)cc1C(F)(F)F` [Example 67] showed a Ki [1, 4] of 4.49e-06 M, a Ki [2, 5] of 3.45e-09 M and an EC50 [3] of 28.5 nM.

With `Cc1ccccc1-c1ccc(-c2nc(-c3ccc([C@H](C)N[C@H](C)C(=O)O)cc3)no2)cc1C(F)(F)F` (racemic) [Example 27, N-[(1S)-1-(4-{5-[2′-methyl-2-(trifluoromethyl)biphenyl-4-yl]-1,2,4-oxadiazol-3-yl}phenyl)ethyl]-D-alanine, hydrochloride salt and N-[(1R)-1-(4-{5-[2′-methyl-2-(trifluoromethyl)biphenyl-4-yl]-1,2,4-oxadiazol-3-yl}phenyl)ethyl]-L-alanine, hydrochloride salt] the Ki [1, 4] was 1.33e-06 M, the Ki [2, 5] was 2.21e-09 M and the EC50 [3] was 7.84 nM.

Work on `Cc1ccccc1-c1ccc(-c2nc(-c3ccc(CNC(C)(CO)C(=O)O)cc3)no2)cc1C(F)(F)F` (centres unmarked) [Example 65] yielded a Ki [1, 4] of 2.56e-06 M, a Ki [2, 5] of 4.82e-09 M and an EC50 [3] of 7.53 nM.

With `Cc1ccccc1-c1ccc(-c2nc(-c3ccc(CN(C)C(C)(CO)C(=O)O)cc3)no2)cc1C(F)(F)F` (centres unmarked) [Example 75] the Ki [1, 4] was 2.3e-06 M, the Ki [2, 5] was 5.3e-09 M and the EC50 [3] was 30.2 nM.

In the case of `Cc1ccccc1-c1ccc(-c2nc(-c3ccc([C@H](C)N(C)CC(=O)O)cc3)no2)cc1C(F)(F)F` [Example 34, N-methyl-N-[(1S)-1-(4-{5-[2′-methyl-2-(trifluoromethyl)biphenyl-4-yl]-1,2,4-oxadiazol-3-yl}phenyl)ethyl]glycine, hydrochloride salt], the Ki [1, 4] is reported as 6e-06 M, the Ki [2, 5] is reported as 4.47e-09 M and the EC50 [3] is reported as 26.3 nM.

With `Cc1ccccc1-c1ccc(-c2nc(-c3cccc(CNC(C)(CO)C(=O)O)c3)no2)cc1C(F)(F)F` (centres unmarked) [Example 78] the Ki [1, 4] was 2.78e-07 M, the Ki [2, 5] was 2.16e-09 M and the EC50 [3] was 22.3 nM.

`Cc1cc(-c2nc(-c3ccc(C(C)N(C)CC(=O)O)cc3)no2)ccc1-c1ccccc1C(F)(F)F` (centres unmarked) [Example 14, N-methyl-N-[1-(4-{5-[2-methyl-2′-(trifluoromethyl)biphenyl-4-yl]-1,2,4-oxadiazol-3-yl}phenyl)ethyl]glycine, hydrochloride salt] was tested, and the Ki [1, 4] was > 2e-05 M, the Ki [2, 5] was 4.78e-09 M and the EC50 [3] was 86.2 nM.

`CC[C@@H](C(=O)O)N(C)Cc1ccc(-c2noc(-c3ccc(-c4ccccc4C)c(C(F)(F)F)c3)n2)cc1` [Example 69, (2S)-2-(methyl(4-(5-(2′-methyl-2-(trifluoromethyl)biphenyl-4-yl)-1,2,4-oxadiazol-3-yl)benzyl)amino)butanoic acid] gave a Ki [1, 4] of 4.07e-06 M, a Ki [2, 5] of 5.2e-09 M and an EC50 [3] of 49.1 nM.

`Cc1ccccc1-c1ccc(-c2nc(-c3ccc(CN(C)[C@H](CO)C(=O)O)cc3)no2)cc1C(F)(F)F` [Example 72] gave a Ki [1, 4] of 2.66e-06 M, a Ki [2, 5] of 3.94e-09 M and an EC50 [3] of 31.9 nM.
